Laboratory results from US5623080A, “Fluorone and pyronin Y derivatives” (Spectra Group Limited, Inc., priority 1995, dated 1997).
Values belong to the molecule of their own block, whether it stands above or below them.

Tests used:
[1] = absorption wavelength (λmax) and extinction (ε); type: physicochemical; details: for λmax in EtOH (first value) / ε (first value): Table 1, EtOH; for ε (first value): at first λmax, in M-1cm-1 (unit assumed); for λmax: synthesis example
solubility = type: physicochemical
pencil hardness = test: pencil hardness
Method: (§1) To a resin formulation consisting of 15 parts urethane diacrylate, 15 parts DPHPA, 20 parts TPGDA and 40 parts TMPTA was added DIDMA, initiator and (4-octyloxyphenyl)phenyliodonium hexafluoroantimonate (OPPI). The samples were coated to a thickness of 15 microns and exposed to a 75 W tungsten halogen dental lamp (focused through an optical fiber) at a distance of 0.75 inch at which the Light intensity was about 0.40 W/cm^2. The molar ratios are indicative of the amounts of fluorone to onium salt to amine coinitiator. The double bond conversion was determined by FTIR spectroscopy. The pencil hardness of a given test sample is measured by holding a pencil at a 45° angle to the sample and drawing across it towards the person testing it. Using the pencils in an order from softest to hardest, the first pencil that scratches the surface is assigned as the pencil hardness of the sample. The pencil hardness scale is as follows from softest to hardest: 4B, 3B, 2B, B, HB, H, 2H, 3H, 4H, 6H. For instance, if a 2H pencil is the first pencil to scratch the surface then the pencil hardness is 2H.
At the extreme ends of the scale, it is impossible to determine the actual pencil hardness. […] Likewise, if the 4B pencil scratches the sample, the only assignment that can be made is <4B, unless it is a lot softer than 4B in which case a <<4B can be assigned. A pencil hardness of 4H is generally considered satisfactory. Pencil hardness data was greater than 6H after 30 seocnd exposure for all samples except for the control samples without amine (1:2:0). The controls were all less than 4B an 0.05 wt %, 0.10 wt %, and 0.15 wt %.
Photosensitive compositions were prepared from the resin formulation of Example 35 containing 1% NPG and 0.05% DIBF or 0.05% DIEF. The samples were exposed under the conditions shown in the following table and pencil hardness was measured.
Diphenyliodonium hexafluoroantimonate was added to DIBF samples.
Samples were also prepared using 1% DIDMA in addition to the fluorone for a 20:1 weight ratio.
Samples were also prepared from the same resin formulation containing 0.1% DIBF in addition to the coinitiator listed in the following Table 9 with the exposure condition and pencil hardness results shown.
Using the resin formulation of Example 36, photosensitive compositions were prepared using TIHF, DIDMA and OPPI at a concentration of 0.21% and in the molar ratios shown in Table 10 which follows. Exposure was conducted with the dental lamp at a distance of 1 inch from the sample to provide an intensity of about 0.26 W/cm^2. Molar ratios are fluorone:onium salt:amine.

[2] = double bond conversion (C=C% Conversion) by FTIR; details: addition of coinitiator to onium salt composition
Method: as §1

film speed = details: addition of coinitiator to onium salt composition
Description: Examples of onium salts useful in the invention can be found in published European Patent Application 0 408227A1. The preferred onium salts for use in the invention are diphenyliodonium salts such as diphenyliodonium hexafluorophosphate, arsenates, antimonates, etc., and, more particularly,hexafluoro-antimonate. Onium salts of simple anions such as chlorides, bromides, etc. are also useful in free radical polymerizable compositions. A particularly preferred onium salt is OPPI below. Addition of a coinitiator such as NPG improves film speed, pencil hardness and double bond conversion. A particularly preferred initiator system is a combination of an iodofluorone in accordance with the invention such as TIHF or DIBF, an amine such as NPG or DIDMA and an onium salt. A preferred molar ratio of fluorone to onium salt to amine is about 1:2:3. […] These onium salt formulations are illustrated in the following Examples 35-37.

pKa = type: physicochemical
Description: (§2) In Table 2 below, the properties of the foregoing initiators are shown: […]

fluorescence (λf, φf) = type: physicochemical
Description: In Table 2 below, the properties of the foregoing initiators are shown:
Entries in the table are in the solvents according to the following order.

[3] = oxidation and reduction potentials (Eox, Ered); type: physicochemical; details: in V (unit assumed)
Description: as §2

depth of cure = details: other fluorone dyes
Description: One of the advantages of the fluorone dye photoinitiators in this invention is the depth of the cure that is obtainable. This is in contrast to UV photoinitators that causes a "screening" effect which prevents the UV light from penetrating beyond a certain […] depth, usually several millimeters. By contrast, the fluorone dye bleaches as it photoinitiates and is concommitantly converted into a non-visible absorbing species thus allowing more visible light to penetrate which continues the cure. This cascading bleaching effect permits substantial depth of cure which can easily reach several inches.
An acrylate monomer mixture was composed of 15 parts urethane diacrylate, 20 parts TPGPA, 40 parts TMPTA and 15 parts DPHPA, and a 20 to 1 weight ratio of NPG coinitiator to DIEF or DIBF fluorone dye. For dye concentrations of 0.01, 0.05 and 0.1 weight, all the formulations cured to a depth of 3 cm in 30 seconds when exposed to a 350 watt tungsten halogen light which provides about 500 mw/cm^2 irradiance. When the irradiance was increased to about 2 watts/cm^2 cure speed was shortened to 5 seconds for the same depth.
An acrylate mixture was composed of 60% urethane diacrylate, 30% DPHPA, 10% BDDA, and 0.05 weight % of DIEF or DIBF fluorone dye with 2 weight % of DIDMA. The formulation cure to a depth greater than 1 cm in 10 seconds when exposed to a 75 watt tungsten halogen lamp which provided an irradiance of about 260 mw/cm^2.
An acrylate mixture was composed of 33% TMPTA, 33% DPHPA, 33% Epoxy acrylate, and 2% of DIDMA with either 0.01, 0.05 or 0.1 weight % of DIEF. All samples cured to a depth greater than 1 cm in 10 seconds when exposed to a 75 watt tungsten halogen.
An acrylate mixture was composed of 70% urethane diacrylate, 5% DPHPA, 25% BDDA, and 2% DIDMA with either 0.01, 0.03 or 0.1 weight % DIEF. The 0.01 and 0.03 samples cured after 2 passes through a 300 watt per inch medium pressure mercury arc lamp at a speed of 50 feet/minute to a depth greater than 3 mm. The 0.1 sample cured to a depth of greater than 1.5 mm.

λmax in EtOH (first value) [1]: 538
ε (first value) [1]: 84,800
solubility in CDCl3 (solubility): almost no solubility
solubility in DMSO (solubility; DMSO): poor solubility
Structure (SMILES): CCCCCCCC(=O)c1cc2cc3cc(I)c(=O)c(I)c-3oc2c(I)c1O [Compound 17, 3-hydroxy-4,5,7-triiodo-2octanoyl-6-fluorone]

λmax in EtOH (first value) [1]: 636
ε (first value) [1]: 17,000
absorption wavelength ([1]; comparison): 638 nm
solubility in CDCl3 (solubility): very good solubility
Structure (SMILES): CCCCCCCC(=O)c1cc2c(C#N)c3cc(I)c(=O)c(I)c-3oc2c(I)c1O [Compound 18, 9-cyano-3-hydroxy-4,5,7-triiodo-2-octanoyl-6-fluorone]

Structure (SMILES): O=C(O)CNc1ccccc1 [NPG, N-phenylglycine, reference compound]
Pencil hardness (pencil hardness; addition of coinitiator to onium salt composition): improves
double bond conversion [2]: improves
film speed (film speed): improves

λmax in EtOH (first value) [1]: 530
ε (first value) [1]: 39300
λmax ([1]; methanol): 526 nm
pKa (pKa): 3.28
φf (fluorescence (λf, φf)): .52
λf (fluorescence (λf, φf); MeOH): 539 nm
Eox [3]: 1.099
Ered [3]: -.95
Structure (SMILES): O=c1c(Br)cc2cc3cc(Br)c(O)c(Br)c3oc-2c1Br [TBHF, 3-hydroxy-2,4,5,7-tetrabromo-6-fluorone]

λmax in EtOH (first value) [1]: 536
ε (first value) [1]: 91200
λmax ([1]; ethanol): 536 nm
pKa (pKa): 4.08
φf (fluorescence (λf, φf)): .13
Eox [3]: 1.04
Ered [3]: -.95
Structure (SMILES): O=c1c(I)cc2cc3cc(I)c(O)c(I)c3oc-2c1I [TIHF, 3-hydroxy-2,4,5,7-tetraiodo-6-fluorone]
Pencil hardness (pencil hardness; 0.21%, TIHF:OPPI:DIDMA (1:1:0), dental lamp 60 sec.): 4H
Pencil hardness (pencil hardness; 0.21%, TIHF:OPPI:DIDMA (1:1:1), dental lamp 60 sec.): 5-6H
Pencil hardness (pencil hardness; 0.21%, TIHF:OPPI:DIDMA (1:1:5), dental lamp 60 sec.): > 6H
Pencil hardness (pencil hardness; 0.21%, TIHF:OPPI:DIDMA (1:1:10), dental lamp 60 sec.): > 6H
Pencil hardness (pencil hardness; 0.21%, TIHF:OPPI:DIDMA (1:1:33), dental lamp 60 sec.): > 6H
Pencil hardness (pencil hardness; 0.21%, TIHF:OPPI:DIDMA (1:2:0), dental lamp 60 sec.): 5-6H
Pencil hardness (pencil hardness; 0.21%, TIHF:OPPI:DIDMA (1:2:5), dental lamp 60 sec.): > 6H
Pencil hardness (pencil hardness; 0.21%, TIHF:OPPI:DIDMA (1:2:10), dental lamp 60 sec.): > 6H
Pencil hardness (pencil hardness; 0.21%, TIHF:OPPI:DIDMA (1:2:33), dental lamp 60 sec.): > 6H
Pencil hardness (pencil hardness; 0.21%, TIHF:OPPI:DIDMA (1:5:)), dental lamp 60 sec.): 5-6H
Pencil hardness (pencil hardness; 0.21%, TIHF:OPPI:DIDMA (1:10:0), dental lamp 60 sec.): 5-6H
depth of cure results (depth of cure): have also been observed
